Values quoted from earlier work as cited in patent US6623775B2, “Treating or preventing illness growth of Clostridium difficile” (S.S. Steiner, Inc., priority 1997, dated 2003).

Conditions: degree of ionization taken into account

## CC(C)=CCC(=O)[C@@]1(O)C(O)=C(C(=O)CC(C)C)C(=O)[C@H]1CC=C(C)C (relative stereo) [trans-isohumulone]
  Antibacterial activity relative to colupulone: 11 times
  Antibacterial activity relative to humulone: about 20 times
  Antibacterial activity relative to trans-humulinic acid: nine
